Test results: patent US10519134B2, “Pyrazole compounds and methods of making and using same” (Lundbeck La Jolla Research Center, Inc., priority 2015, dated 2019)
pIC50: −log10 of the molar value.

Key:
Type in all cases: biochemical
MAGL [1] = biological target: T1, MAGL (Mus musculus, UniProt O35678); assay: In vitro competitive activity-based protein profiling (mouse), MAGL gel band; conditions: for pIC50: mouse; for inhibition at 1 µM: read-out: MAGL % inh. 1 μM
T1 construct: Proteomes (mouse brain membrane fraction or cell lysates); from tissue; host or cells: mouse brain membrane fraction (or cell lysates)
T1 sequence (O35678 1-303): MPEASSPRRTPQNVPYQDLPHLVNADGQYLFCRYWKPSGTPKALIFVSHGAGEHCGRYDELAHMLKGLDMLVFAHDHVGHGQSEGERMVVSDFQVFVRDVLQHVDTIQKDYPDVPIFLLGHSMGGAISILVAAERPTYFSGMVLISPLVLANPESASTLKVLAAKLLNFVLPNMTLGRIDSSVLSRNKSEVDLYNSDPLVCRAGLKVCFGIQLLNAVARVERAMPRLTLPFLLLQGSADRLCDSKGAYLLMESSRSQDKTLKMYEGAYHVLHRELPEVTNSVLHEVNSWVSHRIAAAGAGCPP
Summary of the method: (§1)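 Mouse brain membrane proteome or cell lysate (1.0 mg/mL total protein) was preincubated with varying inhibitor concentrations for 30 min at 37 °C, then labelled for 30 min at 37 °C with FP-Rh or HT-01 (50 μM stock in DMSO). Activity was read as fluorescent band intensity after SDS-PAGE.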

MAGL [2] = biological target: T2, MAGL (Homo sapiens, UniProt Q99685); assay: In vitro competitive activity-based protein profiling (human), MAGL gel band
T2 construct: Proteomes (human prefrontal cortex or cell membrane fractions); from tissue; host or cells: human prefrontal cortex (or cell membrane fractions)
T2 sequence (Q99685 1-303): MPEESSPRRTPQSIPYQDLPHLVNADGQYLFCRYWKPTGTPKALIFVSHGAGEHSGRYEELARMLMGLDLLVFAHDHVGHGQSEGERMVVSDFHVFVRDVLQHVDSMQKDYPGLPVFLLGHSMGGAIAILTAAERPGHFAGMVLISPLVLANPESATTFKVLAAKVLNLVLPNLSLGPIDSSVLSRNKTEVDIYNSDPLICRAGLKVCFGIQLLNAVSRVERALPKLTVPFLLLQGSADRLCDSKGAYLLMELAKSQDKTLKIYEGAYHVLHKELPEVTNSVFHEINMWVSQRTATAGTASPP
Procedure: In Vitro Competitive Activity-Based Protein Profiling (Human).
Proteomes (human prefrontal cortex or cell membrane fractions) (50 μL, 1.0-2.0 mg/mL total protein concentration) were preincubated with varying concentrations of inhibitors at 37° C. After 30 min, FP-Rh or JW912 (1.0 μL, 50 μM in DMSO) was added and the mixture was incubated for another 30 min at room temperature. Reactions were quenched with SDS loading buffer (15 μL—4×) and run on SDS-PAGE. Following gel imaging, serine hydrolase activity was determined by measuring fluorescent intensity of gel bands corresponding to MAGL using ImageJ 1.49k software.

FAAH = biological target: T3, FAAH (Mus musculus, UniProt O08914); assay: In vitro competitive activity-based protein profiling (mouse), FAAH gel band; conditions: for pIC50: mouse; for inhibition at 1 µM: read-out: FAAH % inh. 1 μM
T3 construct: Proteomes (mouse brain membrane fraction or cell lysates); from tissue; host or cells: mouse brain membrane fraction (or cell lysates)
T3 sequence (O08914 1-579): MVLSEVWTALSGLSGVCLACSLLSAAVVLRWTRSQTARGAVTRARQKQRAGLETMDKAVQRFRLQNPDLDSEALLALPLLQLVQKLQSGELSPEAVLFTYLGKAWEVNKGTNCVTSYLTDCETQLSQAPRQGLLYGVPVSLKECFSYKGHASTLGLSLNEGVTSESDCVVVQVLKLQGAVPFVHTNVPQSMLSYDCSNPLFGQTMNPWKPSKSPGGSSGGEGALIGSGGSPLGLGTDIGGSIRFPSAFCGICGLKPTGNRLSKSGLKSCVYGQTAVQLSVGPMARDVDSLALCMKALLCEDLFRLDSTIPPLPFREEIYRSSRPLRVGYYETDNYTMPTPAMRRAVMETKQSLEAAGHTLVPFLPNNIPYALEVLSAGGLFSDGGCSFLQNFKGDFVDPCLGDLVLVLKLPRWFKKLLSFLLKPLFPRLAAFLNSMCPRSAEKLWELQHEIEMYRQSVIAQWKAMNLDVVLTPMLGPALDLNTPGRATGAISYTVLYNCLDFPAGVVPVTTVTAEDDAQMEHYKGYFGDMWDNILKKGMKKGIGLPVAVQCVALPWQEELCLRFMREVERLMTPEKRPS
Summary of the method: as §1

Row | SMILES | pIC50 (MAGL [1]) | inhibition at 1 µM (MAGL [1]) [%] | pIC50 (MAGL [2]) | pIC50 (FAAH) | inhibition at 1 µM (FAAH) [%] | inhibition at 1 µM (MAGL [2]; at 1 μM, read-out: MAGL human % inh at 1 μM) [%]
1 | CS(=O)(=O)Nc1ccn(C(=O)N2CCN(Cc3ccc(Cl)cc3N3CCC4(CC3)CN(S(C)(=O)=O)C4)CC2)n1 [Example 230, N-(1-(4-(4-chloro-2-(2-(methylsulfonyl)-2,7-diazaspiro[3.5]nonan-7-yl)benzyl)piperazine-1-carbonyl)-1H pyrazol-3-yl) methanesulfonamide] | – | ≥ 75 | ≥ 7.00 | – | 0 to 25 | –
2 | CS(=O)(=O)Nc1ccn(C(=O)N2CCN(Cc3ccc(C(F)(F)F)cc3N3CC4COCC4C3)CC2)n1 (centres unmarked) [Example 205, N-(1-(4-(2-(tetrahydro-1H-furo[3,4-c]pyrrol-5(3H)-yl)-4-(trifluoromethyl)benzyl)piperazine-1-carbonyl)-1H-pyrazol-3-yl) methanesulfonamide] | – | ≥ 75 | ≥ 7.00 | – | 0 to 25 | –
3 | CC1CCCN1c1cc(CN2CCN(C(=O)n3ccc(NS(C)(=O)=O)n3)CC2)cc(C(F)(F)F)c1 (centres unmarked) [Example 191, N-(1-(4-(3-(2-methylpyrrolidin-1-yl)-5-(trifluoromethyl)benzyl)piperazine-1-carbonyl)-1H-pyrazol-3-yl) methanesulfonamide] | – | ≥ 75 | ≥ 7.00 | – | 0 to 25 | –
4 | CS(=O)(=O)Nc1ccn(C(=O)N2CCC3(CCCN3Cc3cc(Cl)cc(N4CCCC4)c3)CC2)n1 [Example 193, N-(1-(1-(3-chloro-5-(pyrrolidin-1-yl)benzyl)-1,8-diazaspiro[4.5]decane-8-carbonyl)-1H-pyrazol-3-yl) methanesulfonamide] | – | ≥ 75 | ≥ 7.00 | – | 0 to 25 | –
5 | CS(=O)(=O)Nc1ccn(C(=O)N2CCN(Cc3ccc(C(F)(F)F)cc3-c3nnco3)CC2)n1 [Example 113, N-(1-(4-(2-(1,3,4-oxadiazol-2-yl)-4-(trifluoromethyl)benzyl)piperazine-1-carbonyl)-1H-pyrazol-3-yl)methanesulfonamide] | – | ≥ 75 | 6.00 to 7.00 | – | 0 to 25 | –
6 | CC1CCCN1c1cc(C(F)(F)F)ccc1CN1CCN(C(=O)n2ccc(NS(C)(=O)=O)n2)CC1 (centres unmarked) [Example 189, N-(1-(4-(2-(2-methylpyrrolidin-1-yl)-4-(trifluoromethyl)benzyl)piperazine-1-carbonyl)-1H-pyrazol-3-yl) methanesulfonamide] | – | ≥ 75 | ≥ 7.00 | – | 0 to 25 | –
7 | CS(=O)(=O)Nc1ccn(C(=O)N2CCN(Cc3ccc(C(F)(F)F)c(N4CCC(C(N)=O)CC4)c3)CC2)n1 [Example 291, 1-(5-((4-(3-(methylsulfonamido)-1H-pyrazole-1-carbonyl)piperazin-1-yl)methyl)-2-(trifluoromethyl)phenyl)piperidine-4-carboxamide] | – | 0 to 25 | – | – | 0 to 25 | 25
8 | Cc1ccc(CN2CCN(C(=O)n3ccc(NS(C)(=O)=O)n3)CC2)c(N2CCCC2)c1 [Example 137, N-(1-(4-(4-methyl-2-(pyrrolidin-1-yl)benzyl)piperazine-1-carbonyl)-1H-pyrazol-3-yl) methanesulfonamide] | 6.00 to 7.00 | ≥ 75 | ≥ 7.00 | 5.00 to 6.00 | 0 to 25 | –
9 | CS(=O)(=O)Nc1ccn(C(=O)N2CCN(Cc3cc(N4CCCC4)ccc3Cl)CC2)n1 [Example 194, N-(1-(4-(2-chloro-5-(pyrrolidin-1-yl)benzyl)piperazine-1-carbonyl)-1H-pyrazol-3-yl) methanesulfonamide] | – | ≥ 75 | 6.00 to 7.00 | – | 0 to 25 | –

Now from value to compound:

Row | pIC50 (MAGL [1]) | inhibition at 1 µM (MAGL [1]) [%] | pIC50 (MAGL [2]) | pIC50 (FAAH) | inhibition at 1 µM (FAAH) [%] | inhibition at 1 µM (MAGL [2]; at 1 μM, read-out: MAGL human % inh at 1 μM) [%] | SMILES
10 | ≥ 7.00 | ≥ 75 | ≥ 7.00 | 5.00 to 6.00 | 0 to 25 | – | CC(=O)Nc1ccn(C(=O)N2CCN(Cc3ccc(C(F)(F)F)cc3N3CCC(C(C)(C)O)CC3)CC2)n1 [Example 266, N-(1-(4-(2-(4-(2-hydroxypropan-2-yl)piperidin-1-yl)-4-(trifluoromethyl)benzyl)piperazine-1-carbonyl)-1H-pyrazol-3-yl)acetamide]
11 | – | ≥ 75 | ≥ 7.00 | – | 0 to 25 | – | CS(=O)(=O)Nc1ccn(C(=O)N2CCN(Cc3ccc(C(F)(F)F)cc3N3CCC(F)CC3)CC2)n1 [Example 196, N-(1-(4-(2-(4-fluoropiperidin-1-yl)-4-(trifluoromethyl)benzyl)piperazine-1-carbonyl)-1H-pyrazol-3-yl) methanesulfonamide]
12 | ≥ 7.00 | ≥ 75 | ≥ 7.00 | 5.00 to 6.00 | 0 to 25 | – | CC(=O)Nc1ccn(C(=O)N2CCN(Cc3ccc(C(F)(F)F)cc3N3CCN4CCC[C@@H]4C3)CC2)n1 [Example 268, (R)-N-(1-(4-(2-(hexahydropyrrolo[1,2-a]pyrazin-2(1H)-yl)-4-(trifluoromethyl)benzyl)piperazine-1-carbonyl)-1H-pyrazol-3-yl)acetamide]
13 | – | ≥ 75 | ≥ 7.00 | – | 0 to 25 | – | CS(=O)(=O)Nc1ccn(C(=O)N2CCN(Cc3ccc(C(F)(F)F)c(N4CCC(O)CC4)c3)CC2)n1 [Example 289, N-(1-(4-(3-(4-hydroxypiperidin-1-yl)-4-(trifluoromethyl)benzyl)piperazine-1-carbonyl)-1H-pyrazol-3-yl) methanesulfonamide]
14 | – | ≥ 75 | ≥ 7.00 | – | 0 to 25 | – | CS(=O)(=O)Nc1ccn(C(=O)N2CCN(Cc3ccc(C(F)(F)F)c(N4CCC(F)CC4)c3)CC2)n1 [Example 271, N-(1-(4-(3-(4-fluoropiperidin-1-yl)-4-(trifluoromethyl)benzyl)piperazine-1-carbonyl)-1H-pyrazol-3-yl) methanesulfonamide]
15 | – | ≥ 75 | ≥ 7.00 | – | 25 to 50 | – | CS(=O)(=O)Nc1ccn(C(=O)N2CCC3(CCCN3Cc3cc(Cl)cc(C(F)(F)F)c3)CC2)n1 [Example 198, N-(1-(1-(3-chloro-5-(trifluoromethyl)benzyl)-1,8-diazaspiro[4.5]decane-8-carbonyl)-1H-pyrazol-3-yl) methanesulfonamide]
16 | – | ≥ 75 | ≥ 7.00 | – | 0 to 25 | – | CS(=O)(=O)Nc1ccn(C(=O)N2CCN(Cc3ccc(C(F)(F)F)cc3N3CCN(C(N)=O)CC3)CC2)n1 [Example 171, 4-(2-((4-(3-(methylsulfonamido)-1H-pyrazole-1-carbonyl)piperazin-1-yl)methyl)-5-(trifluoromethyl)phenyl)piperazine-1-carboxamide]
17 | – | ≥ 75 | ≥ 7.00 | – | 0 to 25 | – | CS(=O)(=O)Nc1ccn(C(=O)N2CCN(Cc3ccc(C(F)(F)F)c(N4CCN5CCC[C@H]5C4)c3)CC2)n1 [Example 287, (S)-N-(1-(4-(3-(hexahydropyrrolo[1,2-a]pyrazin-2(1H)-yl)-4-(trifluoromethyl)benzyl)piperazine-1-carbonyl)-1H-pyrazol-3-yl) methanesulfonamide]
18 | ≥ 7.00 | ≥ 75 | ≥ 7.00 | 5.00 to 6.00 | 0 to 25 | – | CC(C)(O)C1CCN(c2cc(C(F)(F)F)ccc2CN2CCN(C(=O)n3ccc(NS(C)(=O)=O)n3)CC2)CC1 [Example 270, N-(1-(4-(2-(4-(2-hydroxypropan-2-yl)piperidin-1-yl)-4-(trifluoromethyl)benzyl)piperazine-1-carbonyl)-1H-pyrazol-3-yl) methanesulfonamide]
